Source: PubChem BioAssay (NCI)
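Cultured in 96-well plates, cells were exposed to test compound for 48 hours across five concentrations. Here, GI50 denotes the concentration required for 50% inhibition of growth. TGI: total growth inhibition.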

Legend:
Assay in all cases: DTP human tumour cell line panel, 48 h
[1] = tested on: NCI/ADR-RES ovarian
[2] = tested on: MCF7 breast
[3] = tested on: IGROV1 ovarian
[4] = tested on: A549 NSCLC
[5] = tested on: CCRF-CEM leukemia
[6] = tested on: KM12 colon
[7] = tested on: TK-10 renal
[8] = tested on: MDA-MB-231 breast
[9] = tested on: OVCAR-8 ovarian
[10] = tested on: HOP-92 NSCLC
[11] = tested on: PC-3 prostate
[12] = tested on: M14 melanoma
[13] = tested on: NCI-H23 lung
[14] = tested on: HS 578T breast
[15] = tested on: RXF 393 renal
[16] = tested on: MDA-MB-468 breast
[17] = tested on: UACC-257 melanoma
[18] = tested on: OVCAR-5 ovarian
[19] = tested on: DU-145 prostate
[20] = tested on: SNB-75 CNS
[21] = tested on: NCI-H460 lung
[22] = tested on: SF-539 CNS
[23] = tested on: SK-MEL-28 melanoma
[24] = tested on: ACHN renal
[25] = tested on: BT-549 breast
[26] = tested on: SN12C renal
[27] = tested on: RPMI-8226 leukemia
[28] = tested on: A498 renal

For `COc1ccc(NC(=O)Cn2c(/C=C/c3ccc(N(C)C)cc3)nc3ccccc3c2=O)cc1`, the GI50 [1] was 3.51 µM, the TGI [1] was 20.4 µM and the GI50 [2] was 4.35 µM. The TGI [2] was over 100 µM, the GI50 [3] was 36.7 µM and the TGI [3] was over 100 µM. It also gave a GI50 [4] of 13.9 µM, a TGI [4] of over 100 µM and a GI50 [5] of over 100 µM. For the same molecule, the TGI [5] was over 100 µM, the GI50 [6] was over 100 µM and the TGI [6] was over 100 µM. For the same molecule, the GI50 [7] was 6.22 µM, the TGI [7] was 24.2 µM and the GI50 [8] was 2.61 µM. For the same molecule, the TGI [8] was 6.84 µM, the GI50 [9] was 13.5 µM and the TGI [9] was over 100 µM. It also gave a GI50 [10] of 3.65 µM, a TGI [10] of 18.9 µM and a GI50 [11] of 5.6 µM. It also gave a TGI [11] of over 100 µM, a GI50 [12] of 12.9 µM and a TGI [12] of over 100 µM. The GI50 [13] was 3.79 µM, the TGI [13] was 22.5 µM and the GI50 [14] was 4.88 µM. The TGI [14] was 74.9 µM, the GI50 [15] was 2.09 µM and the TGI [15] was 5.27 µM. The GI50 [16] was 3.11 µM, the TGI [16] was 21.2 µM and the GI50 [17] was 84.5 µM. For the same molecule, the TGI [17] was over 100 µM, the GI50 [18] was over 100 µM and the TGI [18] was over 100 µM. It also gave a GI50 [19] of 7.64 µM, a TGI [19] of over 100 µM and a GI50 [20] of 3.86 µM. The TGI [20] was 39.9 µM, the GI50 [21] was 3.63 µM and the TGI [21] was over 100 µM. It also gave a GI50 [22] of 1.79 µM, a TGI [22] of 3.67 µM and a GI50 [23] of 6.07 µM. It also gave a TGI [23] of over 100 µM, a GI50 [24] of 3.25 µM and a TGI [24] of 11.4 µM. For the same molecule, the GI50 [25] was 2.01 µM, the TGI [25] was 5.43 µM and the GI50 [26] was over 100 µM. It also gave a TGI [26] of over 100 µM, a GI50 [27] of 7.14 µM and a TGI [27] of over 100 µM. The GI50 [28] was 4.19 µM and the TGI [28] was 19.8 µM.
